Data as given in US7833531B2, “Method for treating insulin sensitivity by long-acting GLP-1 receptor mimetibody agonists” (Centocor, Inc., priority 2006, dated 2010).
Where two headings read alike, the source gives them in different places. Where no end group is shown, it is not given here.

How the values were obtained:
diabetic rats = conditions: cited from earlier work
db/db mice = assay: Blood glucose lowering in db/db mice; format: in vivo; conditions: six week old db/db mice fasted two hours, intravenous; 0.5-4 hours post-dosing; MMB dose 100-fold lower than GLP-1 peptide dose
Procedure: GLP-1 MMB Lowers Glucose Level in db/db Mice. […] Blood glucose was monitored 0.5, 1, 2, 3, and 4 hours post-dosing.

GLP-1R = target: T1, GLP-1R (Rattus norvegicus, UniProt P32301); assay: cAMP assay in Rinm cells; format: cell-based; conditions: similar experiment
T1 construct: endogenous in cells; host or cells: Rinm cells
T1 sequence (P32301 22-463): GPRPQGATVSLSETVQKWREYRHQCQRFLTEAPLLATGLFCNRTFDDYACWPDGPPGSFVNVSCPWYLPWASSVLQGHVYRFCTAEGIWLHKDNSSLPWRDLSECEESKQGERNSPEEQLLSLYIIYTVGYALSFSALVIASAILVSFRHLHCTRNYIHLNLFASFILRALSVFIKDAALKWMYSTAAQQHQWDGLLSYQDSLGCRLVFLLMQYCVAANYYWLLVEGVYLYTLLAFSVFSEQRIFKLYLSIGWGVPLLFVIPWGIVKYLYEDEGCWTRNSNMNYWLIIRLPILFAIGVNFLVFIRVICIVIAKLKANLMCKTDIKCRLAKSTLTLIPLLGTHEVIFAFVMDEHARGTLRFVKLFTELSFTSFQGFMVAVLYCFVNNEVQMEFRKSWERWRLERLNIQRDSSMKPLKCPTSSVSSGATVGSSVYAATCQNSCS
Procedure: cAMP Assay. GLP-1 binds to its receptor, a G-protein coupled receptor, resulting in a dose-dependent increase in the signaling molecule, 3′,5′-cyclic AMP (cAMP). cAMP can be measured with an in vitro assay in cells expressing the GLP-1R (Applied Biosystems). […] The cells were lysed, and the amount of cAMP was determined using a competitive assay that employs an alkaline-phosphatase labeled cAMP conjugate and a chemiluminescent substrate (Tropix® CDPD®).

[1] = cited from earlier work
[2] = cited from earlier work; remark: listed apart in the source

CC[C@H](C)[C@H](NC(=O)[C@H](Cc1ccccc1)NC(=O)[C@H](CCC(=O)O)NC(=O)[C@H](CCCCN)NC(=O)[C@H](C)NC(=O)[C@H](C)NC(=O)[C@H](CCC(N)=O)NC(=O)CNC(=O)[C@H](CCC(=O)O)NC(=O)[C@H](CC(C)C)NC(=O)[C@H](Cc1ccc(O)cc1)NC(=O)[C@H](CO)NC(=O)[C@H](CO)NC(=O)[C@@H](NC(=O)[C@H](CC(=O)O)NC(=O)[C@H](CO)NC(=O)[C@@H](NC(=O)[C@H](Cc1ccccc1)NC(=O)[C@@H](NC(=O)CNC(=O)[C@H](CCC(=O)O)NC(=O)[C@H](C)NC(=O)[C@@H](N)Cc1c[nH]cn1)[C@@H](C)O)[C@@H](C)O)C(C)C)C(=O)N[C@@H](C)C(=O)N[C@@H](Cc1c[nH]c2ccccc12)C(=O)N[C@@H](CC(C)C)C(=O)N[C@H](C(=O)N[C@@H](CCCCN)C(=O)NCC(=O)N[C@@H](CCCNC(=N)N)C(N)=O)C(C)C [GLP-1 peptide]
insulin sensitivity (diabetic rats; acute administration): not acute | insulin sensitivity (diabetic rats; chronic administration): significant improvement in insulin sensitivity | blood glucose (db/db mice): lowered blood glucose at 30 minutes, but by 60 minutes, the blood glucose began to increase again

GLP-1 (A2S) MMB in IgG4 scaffold: mimetibody with DPP-IV resistant GLP-1 variant GLP-1 (A2S) in IgG4 scaffold (HSEGTFTSDVSSYLEGQAAKEFIAWLVKGRG; also: in IgG4 mimetibody scaffold)
cAMP levels in Rinm cells relative to wt GLP-1 MMB in IgG4 scaffold (GLP-1R): significantly higher level than wt GLP-1 MMB in IgG4 scaffold

GLP-1 (A2G) MMB in IgG4 scaffold: mimetibody with DPP-IV resistant GLP-1 variant GLP-1 (A2G) in IgG4 scaffold (HGEGTFTSDVSSYLEGQAAKEFIAWLVKGRG; also: in IgG4 mimetibody scaffold)
cAMP levels in Rinm cells relative to wt GLP-1 MMB in IgG4 scaffold (GLP-1R): significantly higher level than wt GLP-1 MMB in IgG4 scaffold

Byetta™: recently marketed GLP-1 analogue developed by Amylin and Eli Lilly, first identified in the saliva of the gila monster lizard
in vivo half life [1]: less than 30 minutes | sustained decrease in body weight ([2]; during the course of the study): 5-10 pounds | HbAlc levels lowered ([2]; following 82 weeks of treatment): approximately 1%
